The values below come from PubChem BioAssay AID330 (DTP/NCI, 2004).

This experiment deals with P388 leukemia ip, CD2F1 mice, survival T/C. The experiment in a line: NCI In Vivo Anticancer Drug Screen. Data for tumor model P388 Leukemia (intraperitoneal) in CD2F1 (CDF1) mice. Particulars: endpoint: median survival time, higher = longer survival. The method in brief: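 Mice carrying the transplanted tumor received test compound or vehicle. Survival was recorded in each group, and the value is the treated-group measurement divided by that of the vehicle-treated control group.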

The mark [1] stands for this setting: dose: 50.0 mg/kg/injection, schedule: Q01DX009 (ip), vehicle: Klucel (hydroxypropylcellulose) (HPC).
[2] abbreviates: dose: 100.0 mg/kg/injection, schedule: Q01DX009 (ip), vehicle: Klucel (hydroxypropylcellulose) (HPC).
The mark [3] stands for this setting: dose: 200.0 mg/kg/injection, schedule: Q01DX009 (ip), vehicle: Klucel (hydroxypropylcellulose) (HPC).
[4] abbreviates: dose: 50.0 mg/kg/injection, schedule: Q01DX009 (ip), vehicle: saline.
The mark [5] stands for this setting: dose: 100.0 mg/kg/injection, schedule: Q01DX009 (ip), vehicle: saline.
The mark [6] stands for this setting: dose: 50.0 mg/kg/injection, schedule: Q01DX005 (ip), vehicle: saline with Tween-80.
Where [7] appears, read: dose: 100.0 mg/kg/injection, schedule: Q01DX005 (ip), vehicle: saline with Tween-80.
Where [8] appears, read: dose: 200.0 mg/kg/injection, schedule: Q01DX005 (ip), vehicle: saline with Tween-80.
Setting [9] is: dose: 200.0 mg/kg/injection, schedule: Q01DX009 (ip), vehicle: saline.
Where [10] appears, read: dose: 12.5 mg/kg/injection, schedule: Q01DX009 (ip), vehicle: saline with Tween-80.
Where [11] appears, read: dose: 12.5 mg/kg/injection, schedule: Q01DX005 (ip), vehicle: saline with Tween-80.
[12] abbreviates: dose: 25.0 mg/kg/injection, schedule: Q01DX005 (ip), vehicle: saline with Tween-80.

Where “and” joins values, the source holds several entries; their conditions need not be identical. Equal values may be shown once. Toxic doses and inconclusive results are not listed.

With `Cc1ccc(C(=O)N/N=C/C(=O)O)cc1`, the T/C (dose: 12.5 mg/kg/injection, schedule: Q01DX009 (ip), vehicle: Klucel (hydroxypropylcellulose) (HPC)) is 94 % of control; the T/C (dose: 25.0 mg/kg/injection, schedule: Q01DX009 (ip), vehicle: Klucel (hydroxypropylcellulose) (HPC)) is 95 % of control; the T/C under setting [1] was 94 % of control; the T/C under setting [2] was 88 % of control; the T/C under setting [3] was 88 % of control.

On to `O=C1CC(C(Cl)(Cl)Cl)O1` (centres undefined), for which the T/C (dose: 25.0 mg/kg/injection, schedule: Q04DX003 (ip), vehicle: saline) was 97 % of control; the T/C (dose: 50.0 mg/kg/injection, schedule: Q04DX003 (ip), vehicle: saline) was 97 % of control; the T/C (dose: 100.0 mg/kg/injection, schedule: Q04DX003 (ip), vehicle: saline) was 99 % of control; the T/C (dose: 200.0 mg/kg/injection, schedule: Q04DX003 (ip), vehicle: saline) is 99 % of control.

As to `CC(CN1CCOCC1)(CN1CCOCC1)[N+](=O)[O-]`, the T/C is 111 % of control (dose: 12.5 mg/kg/injection, schedule: Q01DX009 (ip), vehicle: saline); 110 % of control (dose: 25.0 mg/kg/injection, schedule: Q01DX009 (ip), vehicle: saline); 107 % of control and 111 % of control under setting [4]; 115 % of control under setting [5].

Turning to `CCC1(/C=N/NC(N)=O)NC(=O)NC1=O` (centres undefined), the T/C is 93 % of control under setting [6], 96 % of control under setting [7] and 88 % of control under setting [8].

For the compound `COc1cc2c(c(OC)c1OC)-c1ccc(OC)c(=O)cc1[C@@H](N(C)Cc1ccccc1O)CC2`, the T/C (dose: 1.25 mg/kg/injection, schedule: Q01DX009 (ip), vehicle: Klucel (hydroxypropylcellulose) (HPC)) was 97 % of control; the T/C (dose: 2.5 mg/kg/injection, schedule: Q01DX009 (ip), vehicle: Klucel (hydroxypropylcellulose) (HPC)) is 97 % of control; the T/C (dose: 5.0 mg/kg/injection, schedule: Q01DX009 (ip), vehicle: Klucel (hydroxypropylcellulose) (HPC)) was 111 % of control; the T/C (dose: 20.0 mg/kg/injection, schedule: Q01DX009 (ip), vehicle: Klucel (hydroxypropylcellulose) (HPC)) was 166 % of control and 188 % of control.

Regarding `COC(=O)N[Si](C)(C)C`, the T/C is 93 % of control under setting [4], 98 % of control under setting [5] and 100 % of control under setting [9].

For the compound `Cc1ccc(NC(=S)C#N)c(C)c1`, the T/C was 102 % of control (dose: 15.0 mg/kg/injection, schedule: Q01DX005 (ip), vehicle: saline with Tween-80); 98 % of control (dose: 30.0 mg/kg/injection, schedule: Q01DX005 (ip), vehicle: saline with Tween-80); 98 % of control and 106 % of control (dose: 60.0 mg/kg/injection, schedule: Q01DX005 (ip), vehicle: saline with Tween-80).

As for `NC(=S)N/N=C\c1ncnc2ccccc12`, the T/C (dose: 1.0 mg/kg/injection, schedule: Q01DX009 (ip), vehicle: saline with Tween-80) was 104 % of control; the T/C (dose: 2.0 mg/kg/injection, schedule: Q01DX009 (ip), vehicle: saline with Tween-80) is 118 % of control; the T/C (dose: 4.0 mg/kg/injection, schedule: Q01DX009 (ip), vehicle: saline with Tween-80) was 100 % of control; the T/C (dose: 12.0 mg/kg/injection, schedule: Q01DX009 (ip), vehicle: saline with Tween-80) is 154 % of control; the T/C under setting [10] is 150 % of control; the T/C (dose: 12.5 mg/kg/injection, schedule: Q04DX003 (ip), vehicle: saline with Tween-80) was 112 % of control. Moreover, the T/C is, setting by setting: (dose: 18.0 mg/kg/injection, schedule: Q01DX009 (ip), vehicle: saline with Tween-80) 172 % of control; (dose: 25.0 mg/kg/injection, schedule: Q04DX003 (ip), vehicle: saline with Tween-80) 116 % of control; (dose: 50.0 mg/kg/injection, schedule: Q04DX003 (ip), vehicle: saline with Tween-80) 120 % of control.

With `c1ccc(OP2(Oc3ccccc3)=NP(Oc3ccccc3)(Oc3ccccc3)=NP(Oc3ccccc3)(Oc3ccccc3)=NP(Oc3ccccc3)(Oc3ccccc3)=N2)cc1`, the T/C (dose: 50.0 mg/kg/injection, schedule: Q01DX005 (ip), vehicle: Klucel (hydroxypropylcellulose) (HPC)) is 97 % of control and the T/C (dose: 100.0 mg/kg/injection, schedule: Q01DX005 (ip), vehicle: Klucel (hydroxypropylcellulose) (HPC)) is 91 % of control.

`CCCCOc1cccc2c(NCCCCCCCCNc3c4ccccc4nc4c(OCCCC)cccc34)c3ccccc3nc12`: the T/C reads like this: (dose: 0.62 mg/kg/injection, schedule: Q## X009 (ip), vehicle: lactic acid) 107 % of control; (dose: 1.25 mg/kg/injection, schedule: Q## X009 (ip), vehicle: lactic acid) 99 % of control; (dose: 2.5 mg/kg/injection, schedule: Q## X009 (ip), vehicle: lactic acid) 99 % of control; (dose: 5.0 mg/kg/injection, schedule: Q## X009 (ip), vehicle: lactic acid) 106 % of control; (dose: 10.0 mg/kg/injection, schedule: Q## X009 (ip), vehicle: lactic acid) 91 % of control.

As for `Clc1cccc(Cl)c1C1CSc2ccccc2N=C1c1ccccc1` (centres undefined), the T/C is 94 % of control under setting [1], 100 % of control under setting [2] and 100 % of control under setting [3].

Take `CCCCCCCN(CCCCCCC)CC(O)c1ccc2cc(Cl)c3ccccc3c2c1` (centres undefined): the T/C reads like this: under setting [6], 107 % of control; under setting [7], 112 % of control; under setting [8], 105 % of control.

Turning to `Cc1c(O)ccc(C(=O)C(=O)C(C)C)c1O`, the T/C runs as follows: under setting [1], 115 % of control; under setting [2], 116 % of control; under setting [3], 116 % of control.

Turning to `O=C(O)C1CCN1` (centres undefined), the T/C is, setting by setting: under setting [5], 93 % of control; under setting [9], 86 % of control; (dose: 300.0 mg/kg/injection, schedule: Q01DX009 (ip), vehicle: saline) 86 % of control.

`CCOC(=O)CC(=O)c1cccnc1`: the T/C reads like this: (dose: 50.0 mg/kg/injection, schedule: Q04DX003 (ip), vehicle: suspension in saline) 113 % of control; (dose: 100.0 mg/kg/injection, schedule: Q04DX003 (ip), vehicle: suspension in saline) 104 % of control; (dose: 200.0 mg/kg/injection, schedule: Q04DX003 (ip), vehicle: suspension in saline) 114 % of control; (dose: 400.0 mg/kg/injection, schedule: Q04DX003 (ip), vehicle: suspension in saline) 113 % of control.

In the case of `Nc1ccc(/C=C/c2cccc3cccnc23)cc1`, the T/C reads like this: under setting [10], 96 % of control; (dose: 25.0 mg/kg/injection, schedule: Q01DX009 (ip), vehicle: saline with Tween-80) 96 % of control; (dose: 50.0 mg/kg/injection, schedule: Q01DX009 (ip), vehicle: saline with Tween-80) 93 % of control.

As for `CC(C)(C)C1=CC(C#N)N(Cc2ccccc2)CC1` (centres undefined), the T/C was 110 % of control (dose: 60.0 mg/kg/injection, schedule: Q01DX005 (ip), vehicle: Klucel (hydroxypropylcellulose) (HPC)); 108 % of control (dose: 120.0 mg/kg/injection, schedule: Q01DX005 (ip), vehicle: Klucel (hydroxypropylcellulose) (HPC)); 109 % of control (dose: 240.0 mg/kg/injection, schedule: Q01DX005 (ip), vehicle: Klucel (hydroxypropylcellulose) (HPC)).

In the case of `CCN(CC)CCNc1ccc(COC(=O)OC)c2oc3ccccc3c(=O)c12`, the T/C (dose: 6.25 mg/kg/injection, schedule: Q01DX005 (ip), vehicle: saline with Tween-80) is 115 % of control; the T/C under setting [11] was 111 % of control; the T/C under setting [12] is 97 % of control.

`Fc1ccc(Nc2nnc(-c3ccc(Cl)cc3Cl)o2)cc1`: the T/C was 97 % of control under setting [11]; 99 % of control under setting [12]; 93 % of control and 97 % of control under setting [6]; 96 % of control under setting [8].

On to `Cc1cc(C)[n+]2n1C(=O)C(c1ccc(C3C(=O)n4c(C)cc(C)[n+]4C3=O)cc1)C2=O` (centres undefined), for which the T/C reads like this: (dose: 50.0 mg/kg/injection, schedule: Q01DX005 (ip), vehicle: Klucel + Tween-80) 99 % of control; (dose: 100.0 mg/kg/injection, schedule: Q01DX005 (ip), vehicle: Klucel + Tween-80) 97 % of control; (dose: 200.0 mg/kg/injection, schedule: Q01DX005 (ip), vehicle: Klucel + Tween-80) 100 % of control.
